Experimental findings from PubChem BioAssay (NCI) are described below.

The term GI50 denotes the concentration giving 50% growth inhibition. For orientation: TGI means the concentration at which net growth stops. Lower therefore signals greater sensitivity of the cells.

Some test systems named below: 786-0 renal; COLO 205 colon; HCT-116 colon; HOP-92 NSCLC; OVCAR-4 ovarian; SK-MEL-2 melanoma; SK-OV-3 ovarian; SR leukemia.
Holding throughout (assay): DTP human tumour cell line panel, 48 h

Several values for one entry are separate records, joined by “and”; a condition that tells them apart may be missing. Identical values can stand only once.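 Test compounds were applied to cells in 96-well plates for 48 hours at 5 doses. GI50 marks 50% less growth. At the TGI there is no net growth.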

Consider `CCCCNC(=O)c1cc(NCc2cc(O)ccc2O)ccc1O`, for which the GI50 in the test with 786-0 renal was 10.8 µM; with COLO 205 colon, 17 µM; in the test with HCT-116 colon it was 18.8 µM; in the test on HOP-92 NSCLC it was 6.81 µM; with OVCAR-4 ovarian, 12.3 µM; in the test with SK-MEL-2 melanoma, 22.8 µM. The GI50 is 67.5 µM with SK-OV-3 ovarian and 5.35 µM with SR leukemia. Further, the TGI turned out to be 23.2 µM with 786-0 renal; 36.9 µM in the test with COLO 205 colon; 37.5 µM in the test on HCT-116 colon; 21.7 µM in the test on HOP-92 NSCLC; 24.8 µM in the test on OVCAR-4 ovarian; 65 µM in the test with SK-MEL-2 melanoma. The concentration for total growth inhibition (TGI) in the test with SK-OV-3 ovarian and in the test on SR leukemia was greater than 100 µM in each case.

In the case of `CCCNC(=O)c1ccc(Cl)cc1Cl`, the GI50 with 786-0 renal, with COLO 205 colon, in the test on HCT-116 colon, in the test on HOP-92 NSCLC, in the test on OVCAR-4 ovarian and with SK-MEL-2 melanoma was greater than 100 µM each time. The GI50 in the test on SK-OV-3 ovarian and with SR leukemia was greater than 100 µM throughout. The TGI with 786-0 renal, with COLO 205 colon, with HCT-116 colon, with HOP-92 NSCLC, in the test on OVCAR-4 ovarian and in the test on SK-MEL-2 melanoma was greater than 100 µM each time. In addition, the TGI in the test on SK-OV-3 ovarian and in the test with SR leukemia was greater than 100 µM throughout.

Turning to `NC(N)=Nc1nc2ccc([N+](=O)[O-])cc2[nH]1`, the TGI with 786-0 renal, with COLO 205 colon, in the test with HCT-116 colon, in the test on HOP-92 NSCLC, with OVCAR-4 ovarian and with SK-MEL-2 melanoma was greater than 100 µM each time. Moreover, the TGI with SK-OV-3 ovarian and with SR leukemia was greater than 100 µM throughout.

For the compound `Cc1ccc(C(SCC(N)C(=O)O)(c2ccccc2)c2ccccc2)cc1` (stereo not drawn), the concentration for 50% growth inhibition (GI50) was 0.175 µM with 786-0 renal; 0.098 µM with COLO 205 colon; 0.0384 µM in the test with HCT-116 colon; 0.288 µM in the test with HOP-92 NSCLC; 22.8 µM in the test on OVCAR-4 ovarian; 2.75 µM with SK-MEL-2 melanoma. In addition, the results for the GI50 in the test on SK-OV-3 ovarian and in the test with SR leukemia were 0.0748 µM and 0.0724 µM, respectively. Also, the TGI was 2.43 µM with 786-0 renal; 0.95 µM in the test with COLO 205 colon; 13 µM in the test with HCT-116 colon; 73.1 µM in the test on HOP-92 NSCLC; greater than 100 µM in the test on OVCAR-4 ovarian; 98 µM with SK-MEL-2 melanoma. The TGI was greater than 94.7 µM in the test with SK-OV-3 ovarian and greater than 45.8 µM in the test on SR leukemia.

Consider `CCCCC(=O)N/N=C/c1c(O)ccc2ccccc12`, for which the GI50 in the test on 786-0 renal is 3.65 µM; with COLO 205 colon, 2.61 µM; with HCT-116 colon it was 1.32 µM; in the test on HOP-92 NSCLC it was 2.01 µM; with OVCAR-4 ovarian, 1.47 µM; with SK-MEL-2 melanoma, 3.67 µM. In addition, the results for the GI50 with SK-OV-3 ovarian and in the test on SR leukemia were 3.04 µM and 0.45 µM, respectively. Besides, the TGI was greater than 59.2 µM in the test on 786-0 renal; greater than 27.6 µM with COLO 205 colon; greater than 29.6 µM in the test on HCT-116 colon; greater than 84.5 µM in the test on HOP-92 NSCLC; greater than 33.2 µM with OVCAR-4 ovarian; greater than 23.7 µM in the test with SK-MEL-2 melanoma. The TGI with SK-OV-3 ovarian was greater than 100 µM; in the test with SR leukemia, 3.57 µM.

As for `Cc1cc(C(=O)NC(CCC(=O)O)C(=O)O)sc1CCC1CNc2nc(N)[nH]c(=O)c2C1` (stereo not drawn), the GI50 in the test with 786-0 renal is less than 0.01 µM; in the test with COLO 205 colon it was 0.0341 µM and 0.0509 µM; in the test on HCT-116 colon it was < 0.0198 µM and 0.0357 µM; in the test with HOP-92 NSCLC, 0.179 µM and 0.0802 µM; in the test on OVCAR-4 ovarian, 0.121 µM and 0.167 µM; in the test with SK-OV-3 ovarian, 0.0103 µM and 0.0181 µM. In the test on SR leukemia, the GI50 was < 0.0156 µM and 0.0263 µM. The concentration for total growth inhibition (TGI) in the test on 786-0 renal, with COLO 205 colon, in the test on HCT-116 colon, with HOP-92 NSCLC, in the test on OVCAR-4 ovarian and with SK-MEL-2 melanoma was greater than 100 µM in each case. Besides, the TGI in the test with SK-OV-3 ovarian and in the test with SR leukemia was greater than 100 µM throughout.

Turning to `C/C=C/[C@H]1O[C@@H]2C(=C[C@H]1O)C(=O)O[C@H]2C`, the GI50 is 13.8 µM in the test on 786-0 renal; 4.02 µM in the test on COLO 205 colon; 4.19 µM in the test with HCT-116 colon; 1.55 µM in the test with HOP-92 NSCLC; 12.3 µM with OVCAR-4 ovarian; 37.8 µM in the test with SK-MEL-2 melanoma. Besides, the GI50 is greater than 50.2 µM in the test with SK-OV-3 ovarian and 7.29 µM in the test on SR leukemia. Moreover, the TGI with 786-0 renal is 28.7 µM; with COLO 205 colon, greater than 32.1 µM; with HCT-116 colon, 16.7 µM; in the test with HOP-92 NSCLC, 22.1 µM; with OVCAR-4 ovarian, 33.3 µM; with SK-MEL-2 melanoma, greater than 100 µM. For the same compound, the results for the TGI in the test on SK-OV-3 ovarian and in the test on SR leukemia were greater than 66.7 µM and greater than 100 µM, respectively.
